Earlier results on two compounds are cited in article PMC10885983 (Antibiotics, 2024).

One may read the half-life as how long it takes for the measured level to halve. In general, Cmax refers to the maximum level reached in the sampled fluid or tissue.

The conditions of data set [1]: cited from earlier work.
Details of data set [2]: method as in PMID 26312207. The conditions noted are these: humans; cited from earlier work.
The conditions of data set [3]: rat, in vivo, po, cited from earlier work.

Read-outs that look alike come from different tables or passages of the source.

As to `CN[C@H](CC(C)C)C(=O)N[C@H]1C(=O)N[C@@H](CC(N)=O)C(=O)N[C@H]2C(=O)N[C@H]3C(=O)N[C@H](C(=O)N[C@H](C(=O)O)c4cc(O)cc(O)c4-c4cc3ccc4O)[C@H](O)c3ccc(c(Cl)c3)Oc3cc2cc(c3O[C@@H]2O[C@H](CO)[C@@H](O)[C@H](O)[C@H]2O[C@H]2C[C@](C)(N)[C@H](O)[C@H](C)O2)Oc2ccc(cc2Cl)[C@H]1O` [vancomycin], the half-life in data set [1] (intramuscular and intraperitoneal administration) is 36 min. Moreover, the oral bioavailability result in data set [1] (rats) is recorded as “below 0.5%”; in data set [2], less than 10%.
With `CC(=O)NC[C@H]1CN(c2ccc(N3CCOCC3)c(F)c2)C(=O)O1` [linezolid], the Cmax in data set [3] (50 mg/kg) is 25000 ng/mL. Also, the half-life in data set [3] was 66 min.
